In US20250019352A1, “PHARMACOLOGICAL AGENTS FOR TREATING OPHTHALMIC DISEASES” (Plex Pharmaceuticals, Inc., priority 2021, published 2025):

What was measured:
[1] = target: T1, recombinant human hAAC (human αA-crystallin) (Homo sapiens, UniProt P02489); assay: Protection from Ca+2 and UVC induced aggregation of recombinant human alpha-A crystallin (absorbance / SDS-PAGE); type: biochemical; details: for Gel: SDS-PAGE, unaggregated AAC after UVC, compounds tested at 500 μM; for EC50: concentration needed to prevent 50% of hAAC from forming HMW aggregates when exposed to UVC in presence of Ca+2, calculated using SDS-PAGE, read-out: EC50 Biochemical
T1 sequence (P02489 1-173): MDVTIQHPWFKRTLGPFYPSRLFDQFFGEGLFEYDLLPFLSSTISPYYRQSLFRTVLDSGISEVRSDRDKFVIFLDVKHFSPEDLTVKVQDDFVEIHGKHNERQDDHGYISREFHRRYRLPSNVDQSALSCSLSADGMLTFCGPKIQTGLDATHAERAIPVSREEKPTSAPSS
Method: FIG. 2A: SDS-PAGE showing the protection against UVC induced aggregation of human α-A-crystallin (hAAC) by disulfide and related SDMs. Shown are also efficacy of non-related SDMs. The compounds were tested at 500 μM concentration.
The potency of compounds to provide protection from Ca^+2 and UVC induced aggregation of alpha-A crystalline (ACC) was measured by monitoring the effect of Ca^+2 and UVC on recombinant human hAAC. hAAC forms HMW aggregates when exposed to UVC radiation in the presence of 10 mM Ca^+2. The aggregates lead to increased absorbance. Stock compound solutions (made in DMSO) were added to recombinant hAAC (100 ug/ml) at desired concentrations. The hAAC, with the added compound, was incubated at room temperature for 1 hour, followed by addition of 10 μl of 200 mM CaCl2) and further incubation for 5 minutes. Then, absorbance was recorded at 400 nm (T=0 Minute) followed by exposure to UVC (254 nm, 480 mJ/cm^2 per minute). Absorbance was measured again at 15 and 30 minutes. To control for compound related effects, assays were performed with or without AAC in triplicate. Percent protection or change in fold-decrease in aggregation were computed using the measured differences in absorbance. DMSO was used as control. EC50 values were calculated using the SDS-PAGE, which is defined as the concentration of SMD needed to prevent 50% of hAAC from forming HMW aggregates when exposed to UVC in presence of Ca^+2 [FIGS. 2A-2B].

porcine lenses = assay: Ex vivo lens culture: protection from UV-induced opacification; details: porcine lenses cultured ex vivo
Text: To predict whether SMDs could prevent opacification in animal models and ultimately in human patients, we assessed their ability to protect intact lenses cultured ex vivo from UV-induced opacification. As fresh human lenses are difficult to obtain, porcine lenses were used for the ex vivo studies. Porcine lenses are easy to acquire (Sierra for Medical Science, Inc., Whittier, CA) and have been used previously in ex vivo models of Presbyopia. As predicted by our biochemical assays, SMDs prevents UV-induced opacification of porcine lenses ex vivo.

EC50 [1] [µM] | Compound | Gel [1] | Ex-vivo (porcine lenses)
– | O=C(O)CCNS(=O)(=O)c1ccc(F)cc1 [Compound 23] | + (″+″ score = >20% to 50% unaggregated AAC) | –
– | CC(C)NS(=O)(=O)c1cccc(C(=O)O)c1 [Compound 24] | + (″+″ score = >20% to 50% unaggregated AAC) | ++ (″++″ score = >50% unaggregated AAC)
– | O=[N+]([O-])c1cc(S(=O)(=O)C(F)(F)C(F)(F)F)ccc1SSc1ccc(S(=O)(=O)C(F)(F)C(F)(F)F)cc1[N+](=O)[O-] [Compound 18] | + (″+″ score = >20% to 50% unaggregated AAC) | –
– | CC(C)Cc1ccccc1NC(=O)CSSCC(=O)Nc1ccccc1CC(C)C [Compound 51] | ++ (″++″ score = >50% unaggregated AAC) | –
– | Nc1nc(N2CCSSCC2)ncc1[N+](=O)[O-] [Compound 36] | + (″+″ score = >20% to 50% unaggregated AAC) | –
370 | O=C1NC(=O)c2cc(NC(=O)N3CCSSCC3)ccc21 [Compound 37] | ++ (″++″ score = >50% unaggregated AAC) | –
– | O=C(NCCOc1ccccc1)SSC(=O)NCCOc1ccccc1 [Compound 45] | + (″+″ score = >20% to 50% unaggregated AAC) | –
395 | O=C(O)c1ccccc1SSc1ccccc1C(=O)O [Compound 4] | ++ (″++″ score = >50% unaggregated AAC) | –
– | Cc1ncc(CSSCc2cnc(C)c(O)c2CO)c(CO)c1O [Compound 46] | + (″+″ score = >20% to 50% unaggregated AAC) | –
– | COc1ccccc1NC(=O)CSSCC(=O)Nc1ccccc1OC [Compound 55] | ++ (″++″ score = >50% unaggregated AAC) | –
– | O=C(O)c1ccc(S(=O)(=O)N2CCCCC2)cc1 [Compound 27] | + (″+″ score = >20% to 50% unaggregated AAC) | –
– | CCCNS(=O)(=O)c1cccc(C(C)=O)c1 [Compound 22] | + (″+″ score = >20% to 50% unaggregated AAC) | –
– | O=[N+]([O-])c1cc(C(F)(F)F)ccc1SSc1ccc(C(F)(F)F)cc1[N+](=O)[O-] [Compound 14] | + (″+″ score = >20% to 50% unaggregated AAC) | –
– | CNC(C[N+](=O)[O-])NCCSCc1ccc(CN(C)C)o1.Cl (centres unmarked) [Compound 31] | + (″+″ score = >20% to 50% unaggregated AAC) | –
– | N#Cc1cc(C(=O)O)c(O)nc1SSc1nc(O)c(C(=O)O)cc1C#N [Compound 50] | + (″+″ score = >20% to 50% unaggregated AAC) | –
– | COc1ccc(SSc2ccc(OC)cc2)cc1 [Compound 15] | + (″+″ score = >20% to 50% unaggregated AAC) | –
– | O=C(O)c1nsnc1NCCSSCCNc1nsnc1C(=O)O [Compound 42] | + (″+″ score = >20% to 50% unaggregated AAC) | –
– | O=C(O)c1cccc(S(=O)(=O)N2CCCCC2)c1 [Compound 28] | + (″+″ score = >20% to 50% unaggregated AAC) | –
– | Cc1cc(N2CCSSCC2)ncc1[N+](=O)[O-] [Compound 34] | ++ (″++″ score = >50% unaggregated AAC) | –
– | Nc1ccc(SSc2ccc(N)cc2)cc1 [Compound 2] | ++ (″++″ score = >50% unaggregated AAC) | –

EC50 [1] [µM] | Compound | Gel [1] | Ex-vivo (porcine lenses)
– | O=C(CSSCC(=O)Nc1cccc2ccccc12)Nc1cccc2ccccc12 [Compound 48] | + (″+″ score = >20% to 50% unaggregated AAC) | –
– | CC(=O)Nc1ccc(SSc2ccc(NC(C)=O)cc2)cc1 [Compound 16] | + (″+″ score = >20% to 50% unaggregated AAC) | –
– | CCC1c2ccccc2-c2cc(NC(=O)CSSCC(=O)Nc3ccc4c(c3)c3ccccc3n4CC)ccc21 (centres unmarked) [Compound 54] | ++ (″++″ score = >50% unaggregated AAC) | –
– | O=C(O)c1cccc(S(=O)(=O)N2CCOCC2)c1 [Compound 29] | + (″+″ score = >20% to 50% unaggregated AAC) | –
– | COC(=O)c1ccccc1SSc1ccccc1C(=O)OC [Compound 21] | + (″+″ score = >20% to 50% unaggregated AAC) | –
– | O=C(O)Cc1ccc(S(=O)(=O)N2CCOCC2)s1 [Compound 30] | ++ (″++″ score = >50% unaggregated AAC) | –
– | Cc1ccc(NC(=O)C(C)SSC(C)C(=O)Nc2ccc(C)c(F)c2)cc1F (centres unmarked) [Compound 41] | + (″+″ score = >20% to 50% unaggregated AAC) | –
– | Fc1ccccc1SSc1ccccc1F [Compound 7] | + (″+″ score = >20% to 50% unaggregated AAC) | –
410 | CN=C(NC#N)NCCSCc1csc(N=C(C)C)n1 [Compound 32] | ++ (″++″ score = >50% unaggregated AAC) | –
– | O=C(O)c1ccc(SSc2ccc(C(=O)O)cc2)cc1 [Compound 1] | ++ (″++″ score = >50% unaggregated AAC) | –
– | Nc1cccc(SSc2cccc(N)c2)c1 [Compound 5] | ++ (″++″ score = >50% unaggregated AAC) | –
– | O=C(O)c1cccc(S(=O)(=O)NC2CC2)c1 [Compound 25] | + (″+″ score = >20% to 50% unaggregated AAC) | ++ (″++″ score = >50% unaggregated AAC)
495 | CN/C(=C\[N+](=O)[O-])NCCSCc1c[nH]c(CN(C)C)n1 [Compound 11] | ++ (″++″ score = >50% unaggregated AAC) | ++ (″++″ score = >50% unaggregated AAC)
– | Cc1nn(CCC(=O)N2CCSSCC2)c(C)c1[N+](=O)[O-] [Compound 38] | + (″+″ score = >20% to 50% unaggregated AAC) | –
– | O=C(CSSCC(=O)Nc1ccc2ccccc2c1)Nc1ccc2ccccc2c1 [Compound 44] | ++ (″++″ score = >50% unaggregated AAC) | –
365 | O=C(CSSCC(=O)Nc1cccc([N+](=O)[O-])c1)Nc1cccc([N+](=O)[O-])c1 [Compound 40] | + (″+″ score = >20% to 50% unaggregated AAC) | –
– | O=C(O)c1cc(S(=O)(=O)N2CCCC2)ccc1O [Compound 26] | ++ (″++″ score = >50% unaggregated AAC) | –
– | O=C(O)CCC(=O)Nc1ccc(SSc2ccc(NC(=O)CCC(=O)O)cc2)cc1 [Compound 43] | ++ (″++″ score = >50% unaggregated AAC) | –
– | Cc1ccnc(N2CCSSCC2)c1[N+](=O)[O-] [Compound 35] | ++ (″++″ score = >50% unaggregated AAC) | –

Compound | EC50 [1] [µM] | Gel [1] | Ex-vivo (porcine lenses)
O=C(O)c1cc(SSc2ccc([N+](=O)[O-])c(C(=O)O)c2)ccc1[N+](=O)[O-] [Compound 13] | 191 | ++ (″++″ score = >50% unaggregated AAC) | ++ (″++″ score = >50% unaggregated AAC)
